The source made the active and inactive calls. The rule behind the calls is not given here.
Experiments:
[1] = molecular target: T1, ATP-dependent translocase ABCB1 (Homo sapiens, UniProt P08183); test: Inhibition of p-glycoprotein in human vinblastine-resistant MCF7 cells assessed as increase of rhodamine-123 accumulation at 5 to 25 ug/ml measured up to 50 mins; type: cell-based; conditions: mcf7, 50 min
MCF7 [2] = test: Cytotoxicity against human vinblastine-resistant MCF7 cells after 72 hrs by SRB assay; type: cell-based; conditions: MCF7, 72 h
MCF7 [3] = test: Reversible inhibition of p-glycoprotein in human vinblastine-resistant MCF7 cells assessed as increase of rhodamine-123 accumulation at 5 to 25 ug/ml measured up to 50 mins; type: cell-based
[4] = molecular target: T1, ATP-dependent translocase ABCB1; test: Inhibition of p-glycoprotein in human vinblastine-resistant MCF7 cells cultured in medium containing vinblastine assessed as potentiation of vinblastine-induced cytotoxicity at 25 ug/ml after 72 hrs by SRB assay; type: cell-based; conditions: mcf7, 72 h
[5] = molecular target: T1, ATP-dependent translocase ABCB1; test: Inhibition of p-glycoprotein in human vinblastine-resistant MCF7 cells cultured in vinblastine-free medium assessed as potentiation of vinblastine-induced cytotoxicity at 25 ug/ml after 72 hrs by SRB assay; type: cell-based; conditions: mcf7, 72 h
MCF7 [6] = test: Potentiation of vinblastine-induced cytotoxicity in human MCF7 cells at 25 ug/ml after 72 hrs by SRB assay; type: functional
MCF7 [7] = test: Cytotoxicity against human MCF7 cells after 72 hrs by SRB assay; type: cell-based; conditions: MCF7, 72 h
[8] = molecular target: T1, ATP-dependent translocase ABCB1; test: Inhibition of p-glycoprotein in human vinblastine-resistant MCF7 cells assessed as increase of rhodamine-123 accumulation at 5 ug/ml measured up to 50 mins; type: cell-based; conditions: mcf7, 50 min
[9] = molecular target: T1, ATP-dependent translocase ABCB1; test: Inhibition of p-glycoprotein in human vinblastine-resistant MCF7 cells cultured in medium containing vinblastine assessed as potentiation of vinblastine-induced cytotoxicity at 5 ug/ml after 72 hrs by SRB assay; type: cell-based; conditions: mcf7, 72 h
[10] = molecular target: T1, ATP-dependent translocase ABCB1; test: Inhibition of p-glycoprotein in human vinblastine-resistant MCF7 cells cultured in vinblastine-free medium assessed as potentiation of vinblastine-induced cytotoxicity at 5 ug/ml after 72 hrs by SRB assay; type: cell-based; conditions: mcf7, 72 h

T1 sequence (P08183 whole entry): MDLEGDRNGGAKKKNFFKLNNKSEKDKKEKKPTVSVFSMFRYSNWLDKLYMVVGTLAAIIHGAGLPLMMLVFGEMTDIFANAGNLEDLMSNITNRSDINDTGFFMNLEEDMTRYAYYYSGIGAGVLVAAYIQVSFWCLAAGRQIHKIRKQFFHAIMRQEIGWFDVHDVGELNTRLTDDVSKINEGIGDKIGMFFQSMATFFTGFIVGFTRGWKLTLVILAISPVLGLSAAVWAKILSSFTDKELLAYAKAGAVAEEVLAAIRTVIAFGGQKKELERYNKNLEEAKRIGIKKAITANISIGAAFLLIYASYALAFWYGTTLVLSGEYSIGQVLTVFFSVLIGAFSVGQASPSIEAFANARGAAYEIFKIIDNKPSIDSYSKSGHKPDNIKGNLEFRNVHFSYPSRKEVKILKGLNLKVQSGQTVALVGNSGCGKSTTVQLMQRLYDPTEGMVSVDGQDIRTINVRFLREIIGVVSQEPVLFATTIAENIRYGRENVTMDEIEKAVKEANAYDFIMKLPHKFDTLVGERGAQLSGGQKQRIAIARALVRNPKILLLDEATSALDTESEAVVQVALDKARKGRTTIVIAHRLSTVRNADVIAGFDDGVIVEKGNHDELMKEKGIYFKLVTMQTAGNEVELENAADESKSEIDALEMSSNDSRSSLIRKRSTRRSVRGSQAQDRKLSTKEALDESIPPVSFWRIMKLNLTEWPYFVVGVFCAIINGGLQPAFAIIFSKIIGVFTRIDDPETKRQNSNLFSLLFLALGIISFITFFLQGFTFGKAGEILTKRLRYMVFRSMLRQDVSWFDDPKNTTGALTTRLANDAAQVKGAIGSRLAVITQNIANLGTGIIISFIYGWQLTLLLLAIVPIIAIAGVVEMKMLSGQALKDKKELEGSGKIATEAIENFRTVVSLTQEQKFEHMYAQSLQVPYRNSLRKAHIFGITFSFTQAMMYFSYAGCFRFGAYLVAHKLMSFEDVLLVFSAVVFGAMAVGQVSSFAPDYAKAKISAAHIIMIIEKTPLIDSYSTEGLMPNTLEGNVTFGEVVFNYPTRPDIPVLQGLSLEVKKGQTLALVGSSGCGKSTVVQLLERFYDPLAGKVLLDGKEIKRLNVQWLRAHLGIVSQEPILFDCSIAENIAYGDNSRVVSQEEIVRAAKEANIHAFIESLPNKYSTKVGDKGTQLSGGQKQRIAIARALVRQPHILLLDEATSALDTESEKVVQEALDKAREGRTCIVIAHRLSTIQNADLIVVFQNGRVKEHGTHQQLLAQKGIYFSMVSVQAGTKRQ

Structure (SMILES) | inhibition (INH) [1] | IC50 (MCF7 [2]) | inhibition (MCF7 [3]) | fold change (FC) [4] | fold change (FC) [5] | fold change (FC) (MCF7 [6]) | IC50 (MCF7 [7]) | inhibition (INH) [8] | fold change (FC) [9] | fold change (FC) [10]
CCCCCCCCCC(=O)O[C@H]1[C@H](O[C@@H]2[C@@H](O)[C@@H](O)[C@H](O[C@H]3[C@H](O[C@@H](CCCCC)CCCCCCCCCC(=O)O[C@H]4[C@H](O)[C@@H](O)[C@H](O[C@@H]5[C@@H](O[C@@H]6O[C@@H](C)[C@H](OC(=O)[C@@H](C)CC)[C@@H](OC(=O)/C=C/c7ccccc7)[C@H]6O)[C@H](C)O[C@@H](O[C@@H]6[C@@H](O)[C@H]7OC(=O)CCCCCCCCC[C@H](CCCCC)O[C@@H]8O[C@H](CO)[C@@H](O)[C@H](O)[C@H]8O[C@@H]7O[C@H]6C)[C@@H]5OC(=O)CCCCCCCCC)O[C@@H]4CO)O[C@H](CO)[C@@H](O)[C@@H]3O)O[C@H]2C)O[C@@H](C)[C@H](O[C@@H]2O[C@@H](C)[C@H](OC(=O)[C@@H](C)CC)[C@@H](OC(=O)/C=C/c3ccccc3)[C@H]2O)[C@H]1O[C@@H]1O[C@H](CO)[C@@H](O)[C@H](O)[C@H]1O [PURGIN II] | Active | > 25 µg/mL | Active | > 1687.5 | > 2140.6 | >73.4 | > 25 µg/mL | – | – | –
CCCCCCCCCC(=O)O[C@H]1[C@H](O[C@@H]2[C@@H](O)[C@H]3OC(=O)CCCCCCCCC[C@H](CCCCC)O[C@@H]4O[C@H](C)[C@H](O)[C@H](O)[C@H]4O[C@@H]3O[C@H]2C)O[C@@H](C)[C@H](O[C@@H]2O[C@@H](C)[C@H](OC(=O)CCCCC)[C@@H](OC(=O)/C=C/c3ccccc3)[C@H]2O)[C@H]1O[C@@H]1O[C@H](CO)[C@@H](O)[C@H](O)[C@H]1O [PURGINOSIDE II] | – | > 25 µg/mL | – | 1.2 | 1.4 | 1.4 | > 25 µg/mL | – | – | –
CCCCCCCCCC(=O)O[C@H]1[C@H](O[C@@H]2[C@@H](O)[C@H]3OC(=O)CCCCCCCCC[C@H](CCCCC)O[C@@H]4O[C@H](C)[C@H](O)[C@H](O)[C@H]4O[C@@H]3O[C@H]2C)O[C@@H](C)[C@H](O[C@@H]2O[C@@H](C)[C@H](OC(=O)CCCCC)[C@@H](O)[C@H]2O)[C@H]1O[C@@H]1O[C@H](CO)[C@@H](O)[C@H](O)[C@H]1O [PURGINOSIDE IV] | – | > 25 µg/mL | – | 3.3 | 3 | 2.5 | > 25 µg/mL | – | – | –
COC(=O)[C@H]1[C@H]2C[C@@H]3c4[nH]c5cc(OC)ccc5c4CCN3C[C@H]2C[C@@H](OC(=O)c2cc(OC)c(OC)c(OC)c2)[C@@H]1OC [RESERPINE] | – | – | – | – | – | – | – | Active | 29.2 | 4.4
CCCCCCCCCCCC(=O)O[C@H]1[C@H](O[C@@H]2[C@@H](O)[C@@H](O)[C@H](O[C@H]3[C@H](O[C@@H](CCCCC)CCCCCCCCCC(=O)O[C@H]4[C@H](O)[C@@H](O)[C@H](O[C@@H]5[C@@H](O[C@@H]6O[C@@H](C)[C@H](OC(=O)[C@@H](C)CC)[C@@H](O)[C@H]6OC(=O)/C=C/c6ccccc6)[C@H](C)O[C@@H](O[C@@H]6[C@@H](O)[C@H]7OC(=O)CCCCCCCCC[C@H](CCCCC)O[C@@H]8O[C@H](C)[C@H](O)[C@H](O)[C@H]8O[C@@H]7O[C@H]6C)[C@@H]5OC(=O)CCCCCCCCCCC)O[C@@H]4CO)O[C@H](C)[C@H](O)[C@@H]3O)O[C@H]2C)O[C@@H](C)[C@H](O[C@@H]2O[C@@H](C)[C@H](OC(=O)[C@@H](C)CC)[C@@H](OC(=O)/C=C/c3ccccc3)[C@H]2O)[C@H]1O[C@@H]1O[C@H](CO)[C@@H](O)[C@H](O)[C@H]1O [PURGIN I] | – | > 25 µg/mL | – | 4.7 | 3.8 | 2.9 | > 25 µg/mL | – | – | –
CCCCCCCCCC(=O)O[C@H]1[C@H](O[C@@H]2[C@@H](O)[C@@H](O)[C@H](O[C@H]3[C@H](O[C@@H](CCCCC)CCCCCCCCCC(=O)O[C@H]4[C@H](O)[C@@H](O)[C@H](O[C@@H]5[C@@H](O[C@@H]6O[C@@H](C)[C@H](OC(=O)CCCCC)[C@@H](OC(=O)/C=C/c7ccccc7)[C@H]6O)[C@H](C)O[C@@H](O[C@@H]6[C@@H](O)[C@H]7OC(=O)CCCCCCCCC[C@H](CCCCC)O[C@@H]8O[C@H](CO)[C@@H](O)[C@H](O)[C@H]8O[C@@H]7O[C@H]6C)[C@@H]5OC(=O)CCCCCCCCC)O[C@@H]4CO)O[C@H](CO)[C@@H](O)[C@@H]3O)O[C@H]2C)O[C@@H](C)[C@H](O[C@@H]2O[C@@H](C)[C@H](OC(=O)CCCCC)[C@@H](OC(=O)/C=C/c3ccccc3)[C@H]2O)[C@H]1O[C@@H]1O[C@H](CO)[C@@H](O)[C@H](O)[C@H]1O [PURGIN III] | – | > 25 µg/mL | – | 6.4 | 6.5 | 4.7 | > 25 µg/mL | – | – | –
CCCCCCCCCC(=O)O[C@H]1[C@H](O[C@@H]2[C@@H](O)[C@H]3OC(=O)CCCCCCCCC[C@H](CCCCC)O[C@@H]4O[C@H](C)[C@H](O)[C@H](O)[C@H]4O[C@@H]3O[C@H]2C)O[C@@H](C)[C@H](O[C@@H]2O[C@@H](C)[C@H](OC(=O)[C@@H](C)CC)[C@@H](O)[C@H]2OC(=O)/C=C/c2ccccc2)[C@H]1O[C@@H]1O[C@H](CO)[C@@H](O)[C@H](O)[C@H]1O [PURGINOSIDE I] | – | > 25 µg/mL | – | 2.8 | 2.9 | 0.8 | > 25 µg/mL | – | – | –

From ChEMBL document CHEMBL2331429, “Purgin II, a resin glycoside ester-type dimer and inhibitor of multidrug efflux pumps from Ipomoea purga” (J Nat Prod, 2013)
